Patent publication US20230293537A1, “USE OF ACETAMIDE DERIVATIVE IN PREVENTION AND TREATMENT OF ALZHEIMER'S DISEASE” (ACADEMY OF MILITARY MEDICAL SCIENCES, priority 2020, published 2023)

System: 5×FAD transgenic mice
Assay: Morris water maze test of spatial learning and memory in 5×FAD transgenic mice
Type: in vivo
Text: Animals: 5×FAD transgenic mice, male, SPF grade, initial body weight of 25-35 g; provided by Zhang Cheng Laboratory of Peking University. Male 5×FAD transgenic mice produced by breeding 5×FAD transgenic mice with WT mice and their littermate WT mice were used for the experiments, weighing 27-35 g. The 5×FAD transgenic mice were used as acute AD mouse model, the mice could develop AD pathological features at two or three months old, and behavioral changes appeared at five months old. The mice were administered at four months old, and after continuous administration for two months, the spatial learning and memory abilities of the mice were tested by water maze.
(1) Administration: 4-month-old mice were divided into four groups, namely WT (physiological saline), 5×FAD (physiological saline), 5×FAD (YL-IPA08, 0.3 mg/kg), 5×FAD (YL-IPA08, 1 mg/kg), intragastrically (i.g.) administered, once a day. After continuous administration for 8 weeks, the spatial learning and memory ability of the mice were tested by Morris water maze.
(2) Morris water maze test: The Morris water maze test was performed after 8 weeks of the administration of YL-IPA08 (0.3, 1 mg/kg). The water maze consisted of a circular stainless steel pool with a diameter of 120 cm and a depth of 60 cm, and the diameter of the escape platform was 10 cm. The day before the test, the mice were allowed to swim in the water maze for 30 s-60 s to acclimate to the environment. During the training, the mice were allowed to swim freely for 60 s to find the platform. If the mice found the hidden platform autonomously, they were allowed to stay there for 30 seconds, and then taken out. If the mice could not find the platform autonomously, they were guided onto the platform and allowed to stay there for 30 seconds, and then taken out. Training was performed twice a day for 5-7 days until the latency of WT mice to find the platform no longer decreased, and the latency, distance and path of the mice to find the hidden platform in the water maze were recorded. The test was performed 24 hours after the last training session, in which the platform was removed, and the mice were allowed to explore freely in the water maze for 1 minute, and the number of times the mice crossed the position of the platform and the time they stayed in the quadrant of the platform were recorded. There were 8-10 mice per group.
All data were presented by x±SEM. Data statistics and analysis were performed using GraphPad Prism 6.0. Significant differences were assessed by unpaired Student's t test, one-way ANOVA or two-way ANOVA followed by Tukey's multiple comparison test.

[1] = 5×FAD transgenic mice, YL-IPA08 0.3, 1 mg/kg i.g. once a day for 8 weeks, 6 days training, vs solvent control group of 5×FAD mice

CCN(Cc1ccccn1)C(=O)Cc1c(-c2ccc(Cl)c(Cl)c2)nc2cc(C)ccn12.Cl [YL-IPA08, N-ethyl-N-(2-pyridylmethyl)-2-[2-(3,4-dichlorophenyl)-7-methyl-imidazo[1,2-a]pyridin-3-yl]-acetamide·hydrochloride]
learning and cognitive impairment in 5×FAD mice (overall conclusion) (5×FAD mice, 0.3, 1 mg/kg i.g. once a day for 8 weeks, Morris water maze): can improve learning and cognitive impairment | average swimming speed (test period) (5×FAD transgenic mice, 0.3, 1 mg/kg i.g. once a day for 8 weeks, comparison of the mice in each group): not significantly different | number of times the mice crossed the platform (test period) (5×FAD transgenic mice, 0.3, 1 mg/kg i.g. once a day for 8 weeks, test 24 hours after last training, platform removed, 1 minute, vs solvent control group): significantly higher | distance to find the platform (water maze training) [1]: significantly shortened | latency to find the platform (water maze training) [1]: significantly shortened
